# Assay results reported in US20140171465A1, “Methods For Increasing Reticulocyte Hemoglobin Content” (FibroGen, Inc., priority 2011, published 2014).
# What was measured:
# Assay type in all cases: in vivo
# human patients = assay: Safety and efficacy of tested doses in human patients; details: doses between 0.7 and 2.5 mg/kg administered TIW, BIW, or QW
# From the text: In a particular embodiment, the present invention provides an efficacious therapeutic compound for treating a subject having reduced reticulocyte hemoglobin content. Specifically, the invention comprises the compound [(4-hydroxy-1-methyl-7-phenoxy-isoquinoline-3-carbonyl)-amino]-acetic acid for use in methods of increasing reticulocyte hemoglobin content (CHr) in a subject.
# [1] = system: human subjects with end-stage renal disease; assay: Mean hemoglobin levels in human subjects with end-stage renal disease, 6 weeks TIW; details: six week treatment period; Compound A 1.5 mg/kg and 2.0 mg/kg TIW; epoetin alfa TIW
# [2] = system: human subjects with end-stage renal disease; assay: Reticulocyte hemoglobin content (CHr) in human subjects with end-stage renal disease, 6 weeks TIW; details: for Mean Change (pg) from Baseline CHr at Day 43 (6 weeks) of Treatment: ESRD on hemodialysis, no IV iron
# Method: The effect of a compound of the present invention on CHr was determined in human subjects with end-stage renal disease as follows. In the current studies, subjects had been receiving stable maintenance hemodialysis for at least 4 months prior to the initiation of the present study. Additionally, subjects had been maintained on standard of care stable doses of epoetin alfa for the treatment of anemia prior to initiation of the present study.
# In order to examine differences in the CHr response in subjects treated with compound of the invention compared to the CHr response in subject treated with epoetin alpha (the current standard of care), all IV iron supplementation was halted two weeks prior to treatment initiation. Administration of oral iron was allowed.
# […] Baseline CHr levels were determined prior to treatment (mean of two screening period measurements with the Day 1 measurement). CHr levels were measured weekly throughout the six-week study period.
# In contrast, CHr decreased in subjects treated with epoetin alfa during the same time period.
# [3] = system: human subjects with stage 3 and stage 4 chronic kidney disease; assay: Reticulocyte hemoglobin content (CHr) in human subjects with stage 3 or stage 4 chronic kidney disease, 17 weeks
# Method: The effect of compound of the present invention on CHr was determined in human subjects with stage 3 and stage 4 chronic kidney disease patients (eGFR<60 ml/min) as follows. Subjects with stage 3 or stage 4 chronic kidney disease not receiving dialysis were administered Compound A at either approximately 1.2 mg/kg twice weekly or 70 mg fixed dose thrice weekly for a period of 17 weeks. Dose adjustments were permitted from week 5 onward to correct and maintain subjects to a target hemoglobin range; however, doses were not allowed to exceed 2.5 mg/kg per dose. CHr values were measured at week 9 and week 17.
compound,measurement,setting,value
"Cc1nc(C(=O)NCC(=O)O)c(O)c2ccc(Oc3ccccc3)cc12 [Compound A, [(4-hydroxy-1-methyl-7-phenoxy-isoquinoline-3-carbonyl)-amino]-acetic acid]",safety and efficacy of tested doses,human patients,"safe, useful, and effective"
same,changes in mean hemoglobin levels (FIG. 2),[1],time-dependent increase in mean hemoglobin levels
same,Mean Change (pg) from Baseline CHr at Day 43 (6 weeks) of Treatment,"[2]; 1 mg/kg TIW, N = 10",+0.41 pg
same,mean increase in CHr over baseline after 6 weeks of treatment,[2]; 1.3 mg/kg TIW (N=5),0.85 pg/cell
same,Mean Change (pg) from Baseline CHr at Day 43 (6 weeks) of Treatment,"[2]; 1.5 mg/kg TIW, N = 9",+0.10 pg
same,mean increase in CHr over baseline after 6 weeks of treatment,[2]; 1.8 mg/kg TIW (N=5),0.82 pg/cell
same,Mean Change (pg) from Baseline CHr at Day 43 (6 weeks) of Treatment,"[2]; 2.0 mg/kg TIW, N = 9",+0.44 pg
same,change from baseline of the mean CHr over time (FIG. 1),"[2]; six week treatment period, Compound A 1.0, 1.5 and 2.0 mg/kg TIW, epoetin alfa TIW",increase in mean CHr over time
same,maintenance of mean CHr (FIG. 3B),"[3]; 70 mg fixed dose TIW, weeks 9 to 17",maintenance of mean CHr from 9 to 17 weeks
same,"mean CHr over time (FIG. 3A, 3B)","[3]; approximately 1.2 mg/kg BIW or 70 mg TIW, 17 weeks, CKD stage 3/4 not on dialysis",mean CHr increased over time
